Results reported in US6413747B1, “Enhancement of nucleic acid amplification by the addition of a polyamine” (Shimadzu Corporation, priority 1994, dated 2002).
“Also recorded” adds a separate entry of the source.

Tests used:
HIV DNA [1] = experiment: PCR with human white blood cells, varying polyamine concentration (Experiment No. 1); type: biochemical, HIV-1
Description: White blood cells were obtained by taking 14 μl (7×10^4 WBC) of human blood, centrifuging it and removing therefrom the supernatant. Various kinds of polyamine, HIV DNA (100 copies/tube) and PCR core solution were added to the white blood cells thus collected for carrying out PCR (total 50 μl).
After a preheating process of 4 minutes at 94° C., the PCR was carried out for 50 cycles under the conditions of 94° C. for 30 seconds, 60° C. for 1 minute and 72° C. for 1 minute, followed by a polymerization process at 72° C. for 7 minutes. After the PCR was completed, DNAs were detected by electrophoresis with 3% agarose gel containing TAE buffer (40 mM Tris-acetate; 1 mM EDTA, pH 8.0) with 0.5 μg/ml etidium bromide by using 5 μl of the reaction mixture.
and the numerals (1-7) in FIG. 6 indicate the final concentration of polyamine as follows: […]

[2] = system: DNA from LT Escherichia coli; type: biochemical; settings: for reduction of inhibition of PCR due to feces (summary): human feces samples; for maximum concentration of feces at which amplification bands are observed, relative to no addition of polyamine (J) / appearance of amplification bands: polyamine 1 mM; for maximum concentration of feces at which amplification bands are observed, relative to no addition of polyamine (J): 40 cycles; for appearance of amplification bands: human feces
Description: A sample was obtained by making an 8% suspension of human feces in TE buffer and subjecting it to a heat treatment at 95° C. for 10 minutes. […] The detection was carried out as in Experiment No. 1.

HIV DNA [3] = experiment: PCR with human white blood cells, 2 mM polyamine, varying number of HIV DNA copies (Experiment No. 2); type: biochemical, HIV-1; settings: polyamine 2 mM; for number of HIV DNA copies detected (lowest): 40 cycles, copies/tube
Description: White blood cells were obtained by taking 14 μl (7×10^4 WBC) of human blood, centrifuging it and removing therefrom the supernatant. Various polyamines (2 mM), HIV DNA (1000, 100 10 and 0 copies/tube) and PCR core solution were added to the white blood cells thus collected for carrying out PCR (total 50 μl ). The same PCR core solution was used as in Experiment No. 1. The PCR was carried out for 40 cycles under the same conditions as in Experiment 1, and the amplification detection was carried out as in Experiment No. 1.

[4] = system: genomic DNA purified from cotton leaves; settings: DNA isolated from plants; report by Wan and Wilkins; cited from earlier work
DNA = experiment: PCR with soil or tobacco leaf extract and spermidine (Example No. 3); type: biochemical; settings: extract from soil or tobacco leaf (Groups B and C, Lanes 2-4)
Description: Used as the sample was 100 mg of sandy soil from a rice field or 100 mg of homogenized tobacco leaf. The sample was dissolved with 0.1 M EDTA and 0.1% SDS, purified with weakly negative ion-exchange resin (DEAE-Sepharose, fast flow (Pharmacia)), and eluted with 400 μl of 10 mM of tris-HCl (pH 7.0) containing 1 M NaCl. The extract which was colored light brown or light green indicated existence of much contamination of impurities for rough purification material. PCR was carried out after polyamine and PCR core solution were added to the extract. PCR core solution was prepared by removing KCl from the core solution used in Example No. 1. The amount of the PCR core solution was 24 μl, and 3 μl each of DNA-containing extract and spermidine solution was added thereto. PCR and detection of amplified DNA was carried out as in Example No. 1.
In FIG. 5, A indicates a positive control group containing only DNA, B indicates a group with soil extract mixed thereto, and C indicates a group with a tobacco leaf extract mixed thereto. The final concentration of polyamine was zero in Lane 1, 0.5 mM in Lane 2, 1 mM in Lane 3, 2 mM in Lane 4, 4 mM in Lane 5 and 8 mM in Lane 6. Lane M indicates a molecular weight marker.

[5] = system: β-globin coding region of the mouse; experiment: PCR on white blood cells of mouse blood added to human blood, with spermidine (Example No. 2); type: biochemical; settings: spermidine 2 mM, no purification of DNA
Description: Used as the sample was 23 μl of human blood (with 6000 white blood cells/microliter) into which 5 μl of mouse blood, diluted step-wise with a phosphate buffer, was added. After the sample was subjected to a lysis process of red blood cells, the white blood cells were precipitated by centrifugation and the supernatant was removed. Polyamine and PCR core solution were added to the precipitated white cells. The primers for the PCR were oligonucleotide (P3, sequence number=3) homologous to plus-chain and oligonucleotide (P4, sequence number=4) homologous to minus-chain, which are located in the β-globin coding region of the mouse and what gives 174 bp PCR products: where
The same PCR core solution was used as in Example No. 1 except that the primers were P3 and P4. The total amount of the PCR reaction solution was 100 μl, and 10 μl of spermidine solution (final concentration: 2 mM) was added. PCR and detection of amplified DNA were carried out as in Example No. 1. […] If polyamine is added (Group A), by contrast, the inhibition of the amplification reaction is effectively removed, and the presence of PCR products can be detected if there are as few as about ten white blood cells of the mouse without any purification of DNA.

Compound	reduction of inhibition of PCR due to feces (summary) [2]	maximum concentration of feces at which amplification bands are observed, relative to no addition of polyamine (J) [2]	number of HIV DNA copies detected (lowest) (HIV DNA [3])	also measured
NCCCNCCCCNCCCN [G, Spermine]	hardly any effect	4 times	could not be detected	effect on PCR-inhibiting substances derived from blood (HIV DNA [1]; polyamine 0.125-8 mM, human white blood cells, 100 copies HIV DNA/tube, 50 cycles): hardly any effect; also recorded: no such effect was observed; appearance of amplification bands [2]: only thin amplification bands
NCCNCCNCCNCCN [H, Tetraethylenepentamine]	good results	–	10 copies	–
NCCNCCN [D, Diethylenetriamine]	–	8 times	10 copies	appearance of amplification bands [2]: brighter and thicker amplification bands than E; sensitivity relative to E (HIV DNA [3]): about 10 times
NCCCCN [C, Putrescine]	hardly any effect	twice as large	10 copies	–
NCCN [A, Ethylenediamine]	–	4 times	10 copies	–
NCCNCCNCCN [F, Triethylenetetramine]	good results	16 times	10 copies	–
NCCCCNCCCN [E, Spermidine]	–	8 times	–	optimum concentration [4]: 0.2 to 1 mM; amplification (HIV DNA [1]; polyamine concentration 0.25 mM, human blood): No amplification; polyamine concentration at which PCR products can be detected (DNA): 0.5 to 2 mM; number of white blood cells of the mouse at which PCR products can be detected [5]: about ten
Trimethylenediamine [B]	hardly any effect	twice as large	10 copies	–
